Measurements reported in patent US20210346383A1, “COMPOUNDS, COMPOSITIONS AND METHODS FOR TREATING OR PREVENTING HER-DRIVEN CANCERS” (Rain Therapeutics Inc., priority 2018, published 2021).
Read-outs that look alike come from different tables or passages of the source.

How the values were obtained:
[1] = tested on: H-1781 (ERBB2 p.G776Ins V_G/C); assay: cells; format: cell-based
[2] = tested on: H-2170 (ERBB2 amplification); assay: cells; format: cell-based; details: Homo sapiens
[3] = biological target: Ba/F3 cells expressing HER2 P780_Y781insGSP (Homo sapiens, UniProt P04626, DUP778-780, cells depend on it); assay: Ba/F3 growth inhibitory assay, HER2 exon 20 mutations; format: cell-based, murine; details: read-out: IC50, growth inhibition
Method: (§1) The murine pro-B cell line Ba/F3 (RCB0805) was obtained from RIKEN Bio Resource Center (Tsukuba, Japan). […] Several Ba/F3 lines which were established in the previous study were also used in this study.
(§2) Briefly, 2000 cells were seeded in each well of 96-well plates. Twenty-four hours later, DMSO or a TKI at indicated drug concentration were added, and the cells were cultured for additional 72 hours. A colorimetric assay was used to estimate the growth inhibition of each drug using the Cell Counting Kit-8 reagent (Dojindo Laboratories, Kumamoto, Japan). Each experiment was performed in triplicate.
(§3) HER2 A775_G776insYVMA, G776delinsVC, P780_Y781insGSP, YVMA+C805S (YVMACS) and VC+C805S (VCCS) mutations were introduced into Ba/F3 cells using retroviral vector.

[4] = biological target: Ba/F3 cells expressing HER2 YVMA + C805S (YVMACS) (Homo sapiens, UniProt P04626, DUP772-775/C805S, cells depend on it); assay: as above; format: cell-based, murine; details: read-out: IC50, growth inhibition
Method: as §1, §2, §3

[5] = tested on: CALU-3 (ERBB2 amplification); assay: cells; format: cell-based; details: Homo sapiens
[6] = biological target: Ba/F3 cells expressing HER2 G776delinsVC (Homo sapiens, UniProt P04626, DELINS776-776VC, cells depend on it); assay: Ba/F3 growth inhibitory assay, HER2 exon 20 mutations; format: cell-based, murine; details: read-out: IC50, growth inhibition
Method: as §1, §2, §3

[7] = biological target: Ba/F3 cells expressing HER2 A775_G776insYVMA (Homo sapiens, UniProt P04626, DUP772-775, cells depend on it); assay: as above; format: cell-based, murine; details: read-out: IC50, growth inhibition
Method: as §1, §2, §3

[8] = biological target: Ba/F3 cells expressing HER2 VC + C805S (VCCS) (Homo sapiens, UniProt P04626, DELINS776-776VC/C805S, cells depend on it); assay: as above; format: cell-based, murine; details: read-out: IC50, growth inhibition
Method: as §1, §2, §3

[9] = tested on: CUTO-14 (EGFR A767_V769dupASV); assay: cells; details: CUTO14, read-out: Cellular Anti-Proliferative Assay IC50
[10] = tested on: CUTO-17 (EGFR N771_H773dupNPH); assay: cells; details: CUTO17, read-out: Cellular Anti-Proliferative Assay IC50
[11] = tested on: CUTO-18 (EGFR S768_D770dupSVD); assay: cells; details: read-out: Cellular Anti-Proliferative Assay IC50
[12] = tested on: PC9 brain metastasis model; details: cited from earlier work
[13] = biological target: Ba/F3 cells expressing EGFR Del 19 + T790M + C797S (Homo sapiens, UniProt P00533, DEL746-750/T790M/C797S, cells depend on it); assay: Ba/F3 cell growth inhibition assay (Cell Counting Kit-8); format: cell-based, murine; details: Ba/F3 EGFR Del 19 + T790M + C797S; 72 hours; read-out: IC50, growth inhibition
[14] = biological target: Ba/F3 cells expressing EGFR Del 19 (Homo sapiens, UniProt P00533, DEL746-750, cells depend on it); assay: as above; format: cell-based, murine; details: Ba/F3 EGFR Del 19; 72 hours; read-out: IC50, growth inhibition
[15] = biological target: Ba/F3 cells expressing EGFR H773insNPH (Homo sapiens, UniProt P00533, DUP771-773, cells depend on it); assay: as above; format: cell-based, murine; details: 72 hours, read-out: IC50, growth inhibition
[16] = biological target: Ba/F3 cells expressing EGFR A763insFQEA (Homo sapiens, UniProt P00533, INS763FQEA, cells depend on it); assay: as above; format: cell-based, murine; details: 72 hours, read-out: IC50, growth inhibition
[17] = biological target: Ba/F3 cells expressing EGFR L858R + T790M + C797S (Homo sapiens, UniProt P00533, T790M/C797S/L858R, cells depend on it); assay: as above; format: cell-based, murine; details: 72 hours, read-out: IC50, growth inhibition
[18] = biological target: Ba/F3 cells expressing EGFR Del 19 + C797S (Homo sapiens, UniProt P00533, DEL746-750/C797S, cells depend on it); assay: as above; format: cell-based, murine; details: Ba/F3 EGFR Del 19 + C797S; 72 hours; read-out: IC50, growth inhibition
[19] = biological target: Ba/F3 cells expressing EGFR L858R (Homo sapiens, UniProt P00533, L858R, cells depend on it); assay: as above; format: cell-based, murine; details: 72 hours, read-out: IC50, growth inhibition
[20] = biological target: Ba/F3 cells expressing EGFR D770insSVD (Homo sapiens, UniProt P00533, DUP768-770, cells depend on it); assay: as above; format: cell-based, murine; details: 72 hours, read-out: IC50, growth inhibition
[21] = biological target: Ba/F3 cells expressing EGFR L858R + C797S (Homo sapiens, UniProt P00533, C797S/L858R, cells depend on it); assay: as above; format: cell-based, murine; details: 72 hours, read-out: IC50, growth inhibition
[22] = biological target: Ba/F3 cells expressing EGFR V769insASV (Homo sapiens, UniProt P00533, DUP767-769, cells depend on it); assay: as above; format: cell-based, murine; details: 72 hours, read-out: IC50, growth inhibition
[23] = biological target: Ba/F3 cells expressing EGFR H773insH (Homo sapiens, UniProt P00533, DUP773-773, cells depend on it); assay: as above; format: cell-based, murine; details: 72 hours, read-out: IC50, growth inhibition
[24] = tested on: H1975-luc human NSCLC cells, intracranial; details: cited from earlier work
[25] = 10 mg/kg and 25 mg/kg once daily, 49-day treatment

Ba/F3 cells expressing HER2 VC + C805S (VCCS), sequence (P04626 with tags, fused parts or gaps DELINS776-776VC/C805S): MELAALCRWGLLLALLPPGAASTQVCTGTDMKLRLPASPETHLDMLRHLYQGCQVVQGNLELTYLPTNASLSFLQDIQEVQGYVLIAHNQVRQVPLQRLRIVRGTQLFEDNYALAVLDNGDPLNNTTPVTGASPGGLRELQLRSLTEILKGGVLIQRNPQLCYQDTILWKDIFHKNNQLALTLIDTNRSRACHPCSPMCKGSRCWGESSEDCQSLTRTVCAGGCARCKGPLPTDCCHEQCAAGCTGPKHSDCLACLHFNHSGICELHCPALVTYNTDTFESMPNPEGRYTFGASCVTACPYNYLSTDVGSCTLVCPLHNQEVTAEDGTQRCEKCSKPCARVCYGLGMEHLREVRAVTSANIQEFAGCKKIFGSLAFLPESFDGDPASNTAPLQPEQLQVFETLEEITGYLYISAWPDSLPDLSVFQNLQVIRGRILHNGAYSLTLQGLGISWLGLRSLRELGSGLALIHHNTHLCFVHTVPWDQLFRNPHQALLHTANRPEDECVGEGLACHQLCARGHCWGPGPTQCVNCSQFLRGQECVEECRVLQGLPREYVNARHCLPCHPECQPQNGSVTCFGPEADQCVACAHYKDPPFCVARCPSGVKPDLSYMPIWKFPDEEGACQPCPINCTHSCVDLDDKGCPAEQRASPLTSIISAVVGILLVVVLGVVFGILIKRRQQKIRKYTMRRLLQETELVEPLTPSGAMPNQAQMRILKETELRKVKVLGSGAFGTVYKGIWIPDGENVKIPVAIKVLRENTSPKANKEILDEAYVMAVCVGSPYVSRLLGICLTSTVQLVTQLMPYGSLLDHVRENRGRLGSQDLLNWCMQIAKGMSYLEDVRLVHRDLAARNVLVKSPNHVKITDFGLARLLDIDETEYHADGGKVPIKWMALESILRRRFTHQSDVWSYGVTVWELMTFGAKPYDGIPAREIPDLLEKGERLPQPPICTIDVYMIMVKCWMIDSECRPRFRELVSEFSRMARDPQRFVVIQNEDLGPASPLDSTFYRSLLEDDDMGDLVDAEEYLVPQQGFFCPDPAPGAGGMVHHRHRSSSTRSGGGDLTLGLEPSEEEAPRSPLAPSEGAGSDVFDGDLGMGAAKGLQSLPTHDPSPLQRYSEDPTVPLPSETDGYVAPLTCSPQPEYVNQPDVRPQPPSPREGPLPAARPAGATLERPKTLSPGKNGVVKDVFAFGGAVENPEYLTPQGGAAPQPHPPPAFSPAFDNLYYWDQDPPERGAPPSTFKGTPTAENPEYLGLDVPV
Ba/F3 cells expressing HER2 YVMA + C805S (YVMACS), sequence (P04626 with tags, fused parts or gaps DUP772-775/C805S): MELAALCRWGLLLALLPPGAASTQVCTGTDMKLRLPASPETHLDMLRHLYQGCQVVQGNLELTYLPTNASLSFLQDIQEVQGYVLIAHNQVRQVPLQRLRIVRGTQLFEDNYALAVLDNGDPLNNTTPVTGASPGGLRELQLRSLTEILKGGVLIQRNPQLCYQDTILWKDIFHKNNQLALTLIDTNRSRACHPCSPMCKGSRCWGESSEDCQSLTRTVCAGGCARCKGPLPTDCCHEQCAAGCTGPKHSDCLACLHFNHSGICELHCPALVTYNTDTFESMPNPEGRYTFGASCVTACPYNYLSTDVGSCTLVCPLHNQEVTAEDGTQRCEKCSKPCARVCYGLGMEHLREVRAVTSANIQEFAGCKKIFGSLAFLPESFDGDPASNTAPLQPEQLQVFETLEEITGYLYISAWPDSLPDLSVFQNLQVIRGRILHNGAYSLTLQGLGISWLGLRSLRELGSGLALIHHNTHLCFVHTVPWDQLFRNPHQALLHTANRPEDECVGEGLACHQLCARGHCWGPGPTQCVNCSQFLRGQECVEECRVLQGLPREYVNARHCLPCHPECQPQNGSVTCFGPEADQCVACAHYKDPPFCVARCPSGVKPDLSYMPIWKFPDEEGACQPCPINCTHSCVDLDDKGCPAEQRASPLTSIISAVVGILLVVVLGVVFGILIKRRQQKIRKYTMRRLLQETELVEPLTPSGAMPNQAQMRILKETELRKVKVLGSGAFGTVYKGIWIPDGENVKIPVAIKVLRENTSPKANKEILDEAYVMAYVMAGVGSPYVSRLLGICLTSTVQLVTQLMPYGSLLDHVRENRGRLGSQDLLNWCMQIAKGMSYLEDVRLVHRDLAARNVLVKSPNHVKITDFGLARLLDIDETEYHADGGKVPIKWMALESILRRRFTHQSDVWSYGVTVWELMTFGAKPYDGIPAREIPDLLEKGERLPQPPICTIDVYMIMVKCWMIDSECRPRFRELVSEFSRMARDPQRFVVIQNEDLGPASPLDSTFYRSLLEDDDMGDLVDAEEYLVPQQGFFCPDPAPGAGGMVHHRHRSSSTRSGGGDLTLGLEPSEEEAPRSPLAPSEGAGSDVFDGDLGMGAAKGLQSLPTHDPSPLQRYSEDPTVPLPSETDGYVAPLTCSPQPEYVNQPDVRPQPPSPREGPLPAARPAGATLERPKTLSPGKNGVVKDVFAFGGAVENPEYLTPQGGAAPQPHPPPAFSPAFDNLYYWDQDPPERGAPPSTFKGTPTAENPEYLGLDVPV
Ba/F3 cells expressing HER2 G776delinsVC, sequence (P04626 with tags, fused parts or gaps DELINS776-776VC): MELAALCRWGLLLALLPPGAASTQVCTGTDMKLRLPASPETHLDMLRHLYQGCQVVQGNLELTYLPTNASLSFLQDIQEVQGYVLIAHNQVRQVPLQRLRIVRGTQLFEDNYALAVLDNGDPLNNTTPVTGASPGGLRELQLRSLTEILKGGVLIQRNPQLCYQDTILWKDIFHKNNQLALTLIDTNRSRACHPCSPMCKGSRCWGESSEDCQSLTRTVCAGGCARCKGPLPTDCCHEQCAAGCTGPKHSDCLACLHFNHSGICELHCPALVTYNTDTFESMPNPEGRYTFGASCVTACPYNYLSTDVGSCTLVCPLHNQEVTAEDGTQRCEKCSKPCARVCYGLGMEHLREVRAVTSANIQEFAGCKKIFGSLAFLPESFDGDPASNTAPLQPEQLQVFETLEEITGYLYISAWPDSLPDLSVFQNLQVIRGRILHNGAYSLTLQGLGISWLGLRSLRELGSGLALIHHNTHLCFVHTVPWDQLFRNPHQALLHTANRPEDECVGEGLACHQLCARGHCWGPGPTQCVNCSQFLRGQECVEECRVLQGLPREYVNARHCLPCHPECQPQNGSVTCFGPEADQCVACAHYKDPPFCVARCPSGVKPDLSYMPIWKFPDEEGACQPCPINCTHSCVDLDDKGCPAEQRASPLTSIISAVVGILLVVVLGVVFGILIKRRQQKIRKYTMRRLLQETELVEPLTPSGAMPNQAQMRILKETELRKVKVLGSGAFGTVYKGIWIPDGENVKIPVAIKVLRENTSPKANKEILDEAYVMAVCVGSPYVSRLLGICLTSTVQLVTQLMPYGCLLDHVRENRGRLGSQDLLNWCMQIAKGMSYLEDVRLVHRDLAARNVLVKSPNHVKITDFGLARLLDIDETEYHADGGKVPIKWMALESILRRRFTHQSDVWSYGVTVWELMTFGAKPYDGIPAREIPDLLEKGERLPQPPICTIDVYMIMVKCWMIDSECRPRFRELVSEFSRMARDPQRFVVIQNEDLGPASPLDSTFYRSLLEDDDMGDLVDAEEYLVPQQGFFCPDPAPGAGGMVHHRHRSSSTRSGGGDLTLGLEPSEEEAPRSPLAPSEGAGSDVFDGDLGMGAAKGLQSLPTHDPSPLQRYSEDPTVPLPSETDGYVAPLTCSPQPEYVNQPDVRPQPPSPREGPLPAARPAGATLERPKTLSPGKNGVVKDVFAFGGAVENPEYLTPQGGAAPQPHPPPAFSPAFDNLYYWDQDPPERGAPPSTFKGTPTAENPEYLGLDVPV
Ba/F3 cells expressing HER2 A775_G776insYVMA, sequence (P04626 with tags, fused parts or gaps DUP772-775): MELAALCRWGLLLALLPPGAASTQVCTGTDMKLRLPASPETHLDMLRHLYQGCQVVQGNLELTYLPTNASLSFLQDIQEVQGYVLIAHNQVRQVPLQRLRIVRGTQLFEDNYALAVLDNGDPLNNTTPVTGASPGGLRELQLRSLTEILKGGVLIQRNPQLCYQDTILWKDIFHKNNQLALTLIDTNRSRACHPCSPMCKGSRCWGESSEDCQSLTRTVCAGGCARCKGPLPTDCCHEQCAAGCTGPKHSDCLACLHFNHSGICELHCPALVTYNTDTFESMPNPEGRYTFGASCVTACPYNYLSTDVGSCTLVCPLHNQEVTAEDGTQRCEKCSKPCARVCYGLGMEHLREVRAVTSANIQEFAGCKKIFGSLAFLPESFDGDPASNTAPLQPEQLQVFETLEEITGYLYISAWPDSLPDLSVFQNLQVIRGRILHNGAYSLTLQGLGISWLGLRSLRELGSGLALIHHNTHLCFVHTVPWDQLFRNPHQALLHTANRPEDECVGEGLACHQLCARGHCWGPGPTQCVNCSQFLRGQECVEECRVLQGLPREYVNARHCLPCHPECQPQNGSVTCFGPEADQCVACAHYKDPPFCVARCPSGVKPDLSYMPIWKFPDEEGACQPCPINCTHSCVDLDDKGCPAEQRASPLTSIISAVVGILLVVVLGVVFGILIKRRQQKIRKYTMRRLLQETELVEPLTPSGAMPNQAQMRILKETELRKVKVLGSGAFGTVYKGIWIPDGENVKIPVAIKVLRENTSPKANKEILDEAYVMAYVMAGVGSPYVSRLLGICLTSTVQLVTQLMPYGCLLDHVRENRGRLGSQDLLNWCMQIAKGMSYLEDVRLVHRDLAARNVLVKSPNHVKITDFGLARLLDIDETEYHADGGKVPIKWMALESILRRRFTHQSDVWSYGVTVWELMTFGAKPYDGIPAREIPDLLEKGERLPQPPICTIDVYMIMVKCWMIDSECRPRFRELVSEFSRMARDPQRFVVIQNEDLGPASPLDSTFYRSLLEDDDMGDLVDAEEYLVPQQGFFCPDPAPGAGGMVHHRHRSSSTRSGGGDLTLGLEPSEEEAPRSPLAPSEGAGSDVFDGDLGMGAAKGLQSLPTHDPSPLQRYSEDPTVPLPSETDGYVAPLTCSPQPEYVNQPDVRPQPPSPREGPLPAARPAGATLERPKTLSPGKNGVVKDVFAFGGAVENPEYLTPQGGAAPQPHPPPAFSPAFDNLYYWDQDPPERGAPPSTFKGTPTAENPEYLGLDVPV

Question: Which IC50 ([1]; NCI-H1781, read-out: Cellular Anti-Proliferative Assay IC50) does the source give for `CN(C)CC=CC(=O)Nc1cc2c(Nc3ccc(F)c(Cl)c3)ncnc2cc1O[C@H]1CCOC1` [Afatinib, N-[4-[(3-Chloro-4-fluorophenyl)amino]-7-[[(3S)-tetrahydro-3-furanyl]oxy]-6-quinazolinyl]-4(dimethylamino)-2-butenamide] here?
Answer: Its IC50 is 66 nM.

Question: And the IC50 ([2]; NCI-H2170, read-out: Cellular Anti-Proliferative Assay IC50)?
Answer: The IC50 was 11 nM.

Question: What about the GI50 [3] of the same molecule?
Answer: Its GI50 is 6.5 nM.

Question: What about the GI50 [4] of the same molecule?
Answer: Its GI50 is 545 nM.

Question: What about the IC50 ([5]; Calu-3, read-out: Cellular Anti-Proliferative Assay IC50) of the same molecule?
Answer: The IC50 was 31 nM.

Question: And the GI50 [6]?
Answer: Its GI50 is 2.05 nM.

Question: And the GI50 [7]?
Answer: The GI50 was 8.08 nM.

Question: And the GI50 [8]?
Answer: Its GI50 is 41.3 nM.

Question: With `C=CC(=O)Nc1cc(Nc2nccc(-c3cn(C)c4ccccc34)n2)c(OC)cc1N(C)CCN(C)C` [Osimertinib, N-(2-{2-dimethylaminoethyl-methylamino}-4-methoxy-5-{[4-(1-methylindol-3-yl)pyrimidin-2-yl]amino}phenyl)prop-2-enamide] as the molecule, how does the IC50 ([1]; NCI-H1781, H-1781, ERBB2 p.G776Ins V_G/C, normoxic conditions, read-out: Cellular Anti-Proliferative Assay IC50) read?
Answer: Its IC50 is 406 nM.

Question: What about the IC50 [9] of the same molecule?
Answer: The IC50 was 303 nM.

Question: What about the IC50 ([2]; NCI-H2170, H-2170, ERBB2 amplification, normoxic conditions, read-out: Cellular Anti-Proliferative Assay IC50) of the same molecule?
Answer: Its IC50 is 113 nM.

Question: And the IC50 [10]?
Answer: The IC50 was 426 ± 3 nM.

Question: What about the GI50 [3] of the same molecule?
Answer: Its GI50 is 88.5 nM.

Question: What about the GI50 [4] of the same molecule?
Answer: The GI50 was > 1000 nM.

Question: And the IC50 ([5]; CALU-3, ERBB2 amplification, normoxic conditions, read-out: Cellular Anti-Proliferative Assay IC50)?
Answer: The IC50 was 188 nM.

Question: And the GI50 [6]?
Answer: Its GI50 is 7.23 nM.

Question: What about the IC50 [11] of the same molecule?
Answer: The IC50 was 647 ± 3 nM.

Question: And the GI50 [7]?
Answer: The GI50 was 68.3 nM.

Question: What about the tumor regression ([12]; 5 mg/kg QD, first three weeks) of the same molecule?
Answer: Its tumor regression is “caused tumor regression, which was more transient”.

Question: And the tumor regression ([12]; 25 mg/kg QD)?
Answer: The tumor regression was “induced sustained tumor regression until study end at day 60”.

Question: What about the GI50 [8] of the same molecule?
Answer: Its GI50 is > 1000 nM.

Question: With `C=CC(=O)N1CCC(Oc2cc3c(Nc4ccc(Cl)c(Cl)c4F)ncnc3cc2OC)CC1` [Poziotinib] as the molecule, how does the GI50 [13] read?
Answer: Its GI50 is > 1000 nM.

Question: And the GI50 [14]?
Answer: The GI50 was < 0.457 nM.

Question: What about the GI50 [15] of the same molecule?
Answer: Its GI50 is 2.2 nM.

Question: And the GI50 [16]?
Answer: Its GI50 is 0.7 nM.

Question: And the GI50 [17]?
Answer: The GI50 was > 1000 nM.

Question: What about the GI50 [18] of the same molecule?
Answer: Its GI50 is 1.6 nM.

Question: And the GI50 [3]?
Answer: The GI50 was 1.03 nM.

Question: And the GI50 [4]?
Answer: The GI50 was 316 nM.

Question: And the GI50 [19]?
Answer: The GI50 was < 0.457 nM.

Question: And the GI50 [20]?
Answer: The GI50 was 27.9 nM.

Question: What about the GI50 [6] of the same molecule?
Answer: Its GI50 is 0.02 nM.

Question: And the GI50 [21]?
Answer: The GI50 was 7.1 nM.

Question: And the GI50 [22]?
Answer: The GI50 was 28 nM.

Question: What about the GI50 [23] of the same molecule?
Answer: The GI50 was 22.8 nM.

Question: And the GI50 [7]?
Answer: The GI50 was 0.64 nM.

Question: What about the GI50 [8] of the same molecule?
Answer: Its GI50 is 27.9 nM.

Question: With `C=CC(=O)Nc1cc(Nc2nccc(-n3cc(CN(C)C)c(-c4ccccc4)n3)n2)c(OC)cc1N1CCOCC1` [YH25448] as the molecule, how does the body weight [24, 25] read?
Answer: Its body weight is “no obvious loss of the body weight”.

Question: What about the “intracranial tumor growth inhibition vs osimertinib” value [24, 25] of the same molecule?
Answer: The value was “more effectively inhibited intracranial tumor growth than osimertinib”.

Question: What about the intracranial tumor regression ([24]; H1975 xenograft model) of the same molecule?
Answer: The intracranial tumor regression was “showed intracranial tumor regression”.
